The nature of data set [1]: metabolic stability in human hepatocytes. Format: in vitro ADME. The following applies: human, cryopreserved human hepatocytes (suspension); tetrahydronaphthalen-2-ol; 37° C., sampled 0-120 min, LC-MS/MS; read-out: Human hepatocyte T 1/2. The procedure: (§1) A number of compounds 9, 11 and 12 were tested on metabolic stability in human hepatocytes. The hepatic stability was compared to corresponding chroman compounds 25, 26 or 27 (see structures below).
(§2) Test compounds were diluted to 3 μM in incubation medium. Then 40 μl of the 3 μM test compounds was pipetted into a 96 well microtiter plate (flat bottom). Hepatocytes (stored at −140° C.) were thawed in a 37° C. water bath. The cells were resuspended into pre-warmed thawing medium and were centrifuged for 5 minutes at 50 g at room temperature. The supernatant was discarded and the remaining cell pellet was resuspended in warm incubation medium and diluted to 7.5 E5 cells/ml. Then 80 μl of the cell suspension was added to each well of the 96 well microtiter plate containing the test compounds. The resulting mixture was incubated at 37° C. and was sampled at t=0, 5, 30, 60, and 120 min. The samples were analyzed by LC-MS/MS to determine the content of unchanged test compound. Based on the rate of reduction of the content of test compound over time, the half-live (T½) was calculated.

Data set [2] relates to acinar epithelium of the ventral prostate. Briefly: short-term prostate apoptosis and proliferation model in castrated rats. The format is in vivo, rat. The protocol: Selected compounds were tested in a short-term prostate apoptosis and proliferation model in castrated rats.
Intact mature male Wistar rats (350-400 g) were castrated and left to recover for 1 week. 7 days after the castration rats received a single subcutaneous injection of testosterone buciclate (TB), a long-acting testosterone ester, in arachis oil (20 mg/kg) with a volume of 1 ml/kg and were subsequently treated once daily orally for 3 days with the test substance at doses between 0 and 1000 μg/kg, dissolved in gelatin/mannitol and dosed with a volume of 1 ml/kg.
At the end of the experiment rats were euthanized, the prostates were removed, weighed and processed for histology.
Apoptosis of the acinar epithelium of the ventral prostate was determined with TUNEL ([…]) staining. Apoptotic cells show nuclear DNA fragmentation and the TUNEL assay end-labels the fragmented DNA by incorporating biotinylated dUTP at the 3′-OH DNA ends using the enzyme Terminal deoxynucleotidyl Transferase (TdT). Positively stained cells are counted per acinus (glandular unit) in the ventral prostate. Proliferation of the acinar epithelium of the ventral prostate was determined by immunohistochemical staining with an antibody directed against Ki67 (clone Mib5). Positively stained cells are counted per acinus (glandular unit) in the ventral prostate. Statistical significance is determined as compared to TB alone by one-way ANOVA.

Data set [3] has as its target human estrogen receptor β (hERβ) (Homo sapiens, UniProt Q92731). Briefly: ERβ transactivation bioassay in recombinant CHO cells (hERβ, rat oxytocin promoter, luciferase reporter). The conditions noted are these: for ERβ/ERα ratio: ERβ agonistic selectivity over ERα, transactivation data; for EC50: transactivation of luciferase in CHO cells co-transfected with hERβ, read-out: ERβ agonistic EC50. The format is cell-based. The procedure: (§3) The estrogenic and antiestrogenic activity of compounds was determined in an in vitro bioassay with recombinant Chinese hamster ovary (CHO) cells stably co-transfected with the human estrogen receptor α (hERα) or β receptor (hERβ), the rat oxytocin promoter (RO) and the luciferase reporter gene (LUC). The estrogenic activity of a test compound to stimulate the transactivation of the enzyme luciferase mediated via the estrogen receptors hERα or hERβ is expressed in nM. The assay was performed as described by De Gooyer et al., Steroids 68 (2003), 21-30.
In general terms: In a reporter assay the amount or activity of a reporter protein is the signal.

The target in data set [4] is T1, human estrogen receptor α (hERα) (Homo sapiens, UniProt P03372).
T1 sequence (P03372 1-595): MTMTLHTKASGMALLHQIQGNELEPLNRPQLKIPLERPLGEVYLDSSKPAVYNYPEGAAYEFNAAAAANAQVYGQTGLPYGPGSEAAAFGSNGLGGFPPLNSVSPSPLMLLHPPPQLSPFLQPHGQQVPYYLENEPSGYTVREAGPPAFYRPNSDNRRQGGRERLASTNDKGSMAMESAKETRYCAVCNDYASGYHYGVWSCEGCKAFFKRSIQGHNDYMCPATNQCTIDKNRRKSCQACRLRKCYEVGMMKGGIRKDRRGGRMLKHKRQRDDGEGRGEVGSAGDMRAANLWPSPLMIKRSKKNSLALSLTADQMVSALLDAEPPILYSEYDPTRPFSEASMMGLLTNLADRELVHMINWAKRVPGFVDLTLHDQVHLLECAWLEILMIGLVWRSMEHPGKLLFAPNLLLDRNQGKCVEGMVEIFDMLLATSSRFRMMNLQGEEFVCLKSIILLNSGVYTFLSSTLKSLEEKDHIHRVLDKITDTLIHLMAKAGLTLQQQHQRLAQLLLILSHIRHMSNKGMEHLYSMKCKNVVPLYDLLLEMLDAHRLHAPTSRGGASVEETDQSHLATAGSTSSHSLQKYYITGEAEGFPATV
Briefly: ERα transactivation bioassay in recombinant CHO cells (hERα, rat oxytocin promoter, luciferase reporter). The format is cell-based. The conditions noted are these: ratio of activities of eutomer and distomer on ERα. The protocol: as §3

The test system of data set [5] is human hepatocytes. Briefly: metabolic stability in human hepatocytes. Format: in vitro ADME. The following applies: tetrahydronaphthalen-2-ol; 37° C., sampled 0-120 min, LC-MS/MS. The protocol: as §1, §2

human estrogen receptor β (hERβ), sequence (Q92731 whole entry): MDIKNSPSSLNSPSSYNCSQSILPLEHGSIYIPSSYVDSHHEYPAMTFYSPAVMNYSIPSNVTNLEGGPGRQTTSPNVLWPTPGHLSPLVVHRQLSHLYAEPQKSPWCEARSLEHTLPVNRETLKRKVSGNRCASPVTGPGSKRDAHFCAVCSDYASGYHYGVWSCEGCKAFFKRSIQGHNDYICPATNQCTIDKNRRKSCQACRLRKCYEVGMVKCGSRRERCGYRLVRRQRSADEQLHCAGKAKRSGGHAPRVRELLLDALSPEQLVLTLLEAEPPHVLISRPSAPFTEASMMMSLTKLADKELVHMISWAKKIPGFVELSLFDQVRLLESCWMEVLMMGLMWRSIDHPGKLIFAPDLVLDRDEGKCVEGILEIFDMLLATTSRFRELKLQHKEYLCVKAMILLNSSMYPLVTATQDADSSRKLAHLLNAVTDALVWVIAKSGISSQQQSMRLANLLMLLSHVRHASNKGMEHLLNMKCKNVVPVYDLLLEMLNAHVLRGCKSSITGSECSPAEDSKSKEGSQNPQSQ

For the molecule `C[C@@H]1[C@H](c2ccc(O)cc2)Cc2ccc(O)cc2[C@@H]1Cc1c(F)cccc1F` (single isomer, unassigned) [Compound 12i], the half-life at 1 µM in data set [1] was 33.7 min.

`C[C@H]1[C@@H](c2ccc(O)cc2)Cc2ccc(O)cc2[C@H]1Cc1ccccc1F` (single isomer, unassigned) [Compound 11a]: the epithelial cell proliferation entry in data set [2] (at 3 μg/kg, Ki67 staining, compared to TB-alone treated rats) is on record as “decrease in epithelial cell proliferation”. In data set [2] (castrated Wistar rats with testosterone buciclate, once daily orally for 3 days, TUNEL staining, ventral prostate), the “minimal active dose (MAD), increase in epithelial cell apoptosis” value is 3 µg/kg. In data set [2] (castrated rats, TUNEL staining, compared to TB alone, one-way ANOVA), the epithelial cell apoptosis entry is “statistically significant (p<0.01) increase in epithelial cell apoptosis”.

For `CCC1C(c2ccc(O)c(F)c2)Cc2ccc(O)cc2C1Cc1ccccc1F` (racemic) [Compound 9q, 7-ethyl-6-(3-fluoro-4-hydroxyphenyl)-8-(2-fluorobenzyl)-5,6,7,8-tetrahydronaphthalen-2-ol], in data set [3], the ERβ/ERα ratio is on record as >67 and the EC50 (in general, the concentration needed to bring the measured effect to its halfway point) worked out at 1.5 nM.

On to “(6S,7S,8S)-7-ethyl-6-(3- fluoro-4-hydroxyphenyl)- 8-(2-fluorobenzy1)-5,6, 7,8-tetrahydro- naphthalen-2-ol [Compound 11q]”, for which, in data set [3], the ERβ/ERα ratio is >169 and the concentration for a half-maximal effect (EC50) came out at 0.59 nM. The ERβ eudismic ratio in data set [3] (ratio of activities of eutomer and distomer on ERβ) is listed as 7. Besides, the ERα eudismic ratio in data set [4] is listed as <0.3. Also, the “Human hepatocyte T 1/2” value in data set [5] is reported as 82.2 min.

As for `C[C@H]1[C@@H](c2ccc(O)cc2)Cc2ccc(O)cc2[C@H]1Cc1c(F)cccc1F` (single isomer, unassigned) [Compound 11i], in data set [1], the half-life at 1 µM is 29.4 min.

In the case of `CC[C@@H]1[C@H](c2ccc(O)c(F)c2)Cc2ccc(O)cc2[C@@H]1Cc1ccccc1F` (single isomer, unassigned) [Compound 12q], the half-life at 1 µM in data set [1] is > 120 min.

Source of the values: patent US20100240748A1, “TETRAHYDRONAPHTHALEN-2-OL DERIVATIVES” (N. V. Organon, priority 2009, published 2010).
